Results reported in patent US20030059771A1, “Compositions and methods related to the Rig tumor suppressor gene and protein” (THE UNITED STATES OF AMERICA, Department of Health and …, priority 2001, published 2003).

How the values were obtained:
prenylation of GST-Rap = test: In vitro prenylation assay with farnesyl transferase inhibitor (mevalonate prenylation in rabbit reticulocyte lysate); assay type: biochemical; settings: 1-100 nM FTI concentration range
Text: (§1) In this Example, experiments performed to determine the in vitro prenylation characteristics of Rig, Ras and Rap are described. Radiolabelled farnesyl pyrophosphate, radiolabelled geranylgeranyl pyrophosphate or radiolabelled mevalonate were alternatively used as substrates in these assays, to determine the prenylation specificity of each GTPase protein. In addition, the ability of a farnesyl transferase inhibitor (FTI; namely, FTI-277, Calbiochem, Catalog No. 344555) to inhibit the prenylation of Rig, Ras and Rap was examined. Purified GST-Rig, GST-H-Ras (G12V) and GST-Rap fusion proteins were used in the in vitro prenylation experiments. The H-Ras(G12V) protein was included in the prenylation assays to serve as a positive control (Clark et al., Proc. Natl. Acad. Sci. USA 90:4887-4891 [1993]).
(§2) The GST-Rig fusion construct was made by cloning a restriction fragment containing the Rig ORF in frame into the BamHI/EcoRI sites of pGEX-2T (Pharmacia). The vector encoding GST-H-Ras(G12V) was made by subcloning an H-Ras (G12V) BamHI/EcoRI PCR product into the BamHI/EcoRI sites of the pGEX-2T vector. The product was confirmed by sequencing. The GST-Rap fusion construct was produced as described by Clark et al. (Clark et al., J. Biol. Chem., 272:10608-10615 [1997]).
(§3) The resulting plasmids were transformed into competent XL1-Blue Escherichia coli (Stratagene), and the GST-fusion proteins produced by the bacteria were isolated by standard techniques, according to the manufacturer's protocol (Pharmacia), with minor modification (inclusion of 100 μM GTP and the omission of EDTA from the protein collection/purification buffers). Briefly, bacteria were grown to an OD600 of 0.1 in LB broth. At that time, […] isopropyl-β-thiogalactopyranoside (IPTG) was added to the culture. Four hours following IPTG induction, the bacteria were pelleted at 3,000 RPM for 20 minutes, and resuspended in 5 mL lysis buffer (phosphate buffered saline [PBS] containing 100 μM GTP, 0.1% Triton X−100, leupeptin and aprotinin). The lysate was sonicated, then clarified by centrifugation at 10,000 RPM for 30 minutes. The resulting lysate was used as starting material for glutathione-conjugated agarose bead purification (Sigma) using standard techniques. […]
(§4) Each in vitro prenylation reaction contained approximately 1-2 μg alternatively of GST, GST-Rig, GST-H-Ras(G12V) or GST-Rap. […] The gel was soaked in fixing buffer (water with 10% methanol and 10% acetic acid), soaked in autofluor (National Diagnostics, Catalog No. LS315) and analyzed by autoradiography.
(§5) In a second experiment, the sensitivity of mevalonate prenylation of GST-Rig, GST-Ras and GST-Rap, to increasing amounts of farnesyl transferase inhibitor (FTI-277; Calbiochem) was assessed. […] The gel was fixed, soaked in autofluor and analyzed by autoradiography.

[1] = tested on: prenylation of GST-Ras(G12V); test: as above; assay type: biochemical
Text: as §1, §2, §3, §4, §5

prenylation of GST-Rig = test: as above; assay type: biochemical, human
Text: as §1, with “[1993]). […]” for “[1993]).”
as §4, §5

Raf-1 = target: T1, Raf-1 (Homo sapiens, UniProt P04049); test: In vivo Rig/Raf-1 co-immunoprecipitation in HEK-293T cells; assay type: binding; settings: HEK-293T cells co-transfected with HA-Raf-1
T1 construct: HA-RAF-1 fusion protein expression vector was produced by generating a full-length BamHI-compatible PCR fragment from a Raf-1 template; expressed in transfected cells; host or cells: HEK-293T
Text: In this Example, experiments to assess the ability of Rig and Raf-1 to interact in vivo are described. These experiments (results shown in FIG. 9) used a standard in vivo co-transfection/co-immunoprecipitation protocol, where cultured mammalian cells were cotransfected with FLAG-tagged and/or hemagglutinin (HA)-tagged mammalian expression vector constructs, followed by immunoprecipitation with an anti-Raf-1 antibody and Western immunoblotting using either anti-FLAG or anti-HA primary detection antibodies. The assay was conducted using HEK-293T cells, a transformed human embryonal kidney cell line.
Briefly, HA-RAF-1 fusion protein expression vector was produced by generating a full-length BamHI-compatible PCR fragment from a Raf-1 template (Fabian et al., Proc. Natl. Acad.Sci. USA 91:5982-5986 [1994]), then cloned into the BamHI site of pCGN, which also encodes the HA epitope (Fiordalisi et al, Methods Enzymol., 332:3-36 [2001]). The construct was confirmed by sequencing.
A pCDNA3.1 (FLAG) expression vector was produced by inserting the FLAG epitope in-frame upstream of the BamHI restriction site of the multiple cloning region of pCDNA3.1 (Invitrogen). […]
Following transfection, the cells were cultured in DMEM containing 1% FBS for 48 hours. […] Membranes were then incubated in enhanced chemiluminescent substrate (ECL; Amersham) and the signal was detected on X-ray film.

[2] = FTI 1-100 nM, [3H]-mevalonate, one hour at 30 °C

Molecule | sensitivity of GST-Rap farnesylation by mevalonate to FTI (prenylation of GST-Rap) | farnesylation of GST-Ras at 100 nM FTI ([1]; 100 nM FTI concentration) | sensitivity of mevalonate prenylation (radiolabelling) of GST-Ras to FTI [1, 2] | sensitivity of GST-Ras prenylation relative to GST-Rig ([1]; comparison of the two proteins, FTI 1-100 nM) | farnesylation of GST-Rig at 100 nM FTI (prenylation of GST-Rig; 100 nM FTI concentration) | sensitivity of mevalonate prenylation (radiolabelling) of GST-Rig to FTI (prenylation of GST-Rig; [2]) | co-precipitation with Raf-1 (anti-Raf-1 immunoprecipitation) (Raf-1)
COC(=O)[C@H](CCSC)NC(=O)c1ccc(NC[C@@H](N)CS)cc1-c1ccccc1 [FTI-277] | did not show sensitivity | completely abolished | sensitive | greater sensitivity | completely abolished | sensitive | 
FLAG-Rig: FLAG-tagged recombinant Rig protein expressed from pCDNA-FLAG (protein, left off: small tags and cut ends) MPEQSNDYRVVVFGAGGVGKSSLVLRFVKGTFRDTYIPTIEDTYRQVISCDKSVCTLQITDTTGSHQFPAMQRLSISKGHAFILVFSVTSKQSLEELGPIYKLIVQIKGSVEDIPVMLVGNKCDETQREVDTREAQAVAQEWKCAFMETSAKMNYNVKELFQELLTLETRRNMSLNIDGKRSGKQKRTDRVKGKCTLM |  |  |  |  |  |  | coprecipitated
